Legend:
Anti-AD-10 = experiment: ELISA titer of specimens with Anti-AD-10; format: binding, mice; settings: for ELISA titer Anti-AD-10: Table II, specimen coated
Description: Adult Balb/C mice were used for immunization. The mice were used in compliance with the US Public Health Service Policy on humane care and use of animals. First injection consisted of the mixture 100 μg of each version of ADESH in 0.1 ml mixed with equal volume of Freund's complete adjuvant/mouse. The subsequent injections consisted of the mixture 100 μg of ADESH and equal volume of incomplete Freund's adjuvant/mouse. The mice were injected intramuscularly (IM) six times two weeks apart. At the end of the immunization the mice were bled through the ophthalmic veins and serum was separated.
(§1) Enzyme-Linked Immunosorbent Assay (ELISA): The binding affinity of Anti-ADESH made against ADESH consisting of ten amino acids (AD-10), to various specimens known to contain NGF, such as venoms, body fluids, saliva, serum, urine etc. was studied by ELISA. The ELISA binding of Anti-AD-10 was compared to Anti-NGF made against cobra venom. ELISA tests were performed in 96 well microtiter plate. The wells of the plate were coated with one concentration of antigen, diluted in PBS each well receiving 100 μL. The plate was incubated at room temperature (RT) for 16 to 18 hours after which it was three times (3×) with PBS. The wells of the plate were blocked with 0.25 ml/well of 3% Teleostean gelatin from cold water fish (Sigma) for ½ hour at RT. Anti-AD-10 and Anti-NGFs were diluted threefold in gelatin were added to the appropriate wells of ELISA plate, including positive and negative controls. The plate was incubated at 37° C. for 1 to 1.5 hours. After washing 3X times horseradish peroxidase conjugated with IgG made in goat (Sigma) was added and incubated for 1 hour. Finally, the plate was washed and reacted with O-Phenylenediamine Dihydrochloride (OPD) for color development. The test was after ½ hour for ELISA titers.

NGF, NT-3 and bFGF = settings: animals; brain areas associated with memory loss; cited from earlier work
[1] = cited from earlier work
PC12 cells [2] = experiment: Neurite outgrowth on PC12 cells; format: cell-based, rat; settings: for Neurites on PC12: concentration producing neurite outgrowth, read after 72 hours
Description: The trypsin digested fragments in various concentrations were tested for neurite out growth on PC12 cells. Tissue culture plate having 24 wells were seeded with 10^5 PC12 cells in serum free Dulbeco Modified Eagle's medium (DMEM). The results were read after 72 hours for neurite outgrowth. The fraction showing the most neurite outgrowth at the lowest concentration was sequenced for its amino acids composition. Sequencing was contracted out to the Protein Core Laboratory of Baylor College of Medicine, Houston, Tex.

PC12 cells [3] = experiment: Toxicity to PC12 cells; format: cell-based, rat; settings: toxic concentration on PC12 cells
Anti-V-NGF = experiment: ELISA titer of specimens with Anti-V-NGF; format: binding; settings: in comparison to Anti-H-NGF
Description: as §1

Molecule | ELISA titer Anti-AD-10 (Anti-AD-10) | neurite outgrowth on PC12 cells (in words) (PC12 cells [2]) | Neurites on PC12 (PC12 cells [2]) [µg] | Toxicity to PC12 (PC12 cells [3]) [µg] | other results
H-NGF urine: NGF of human origin isolated from urine | 2700 |  |  |  | 
O=C(CCn1cnc2c(=O)[nH]cnc21)Nc1ccc(C(=O)[O-])cc1.[K+] [AIT-082] |  |  |  |  | activation of genes producing neurotrophic factors in brain (NGF, NT-3 and bFGF): activate multiple genes in animals to produce three different neurotrophic factors; absorption and activity after oral administration [1]: rapidly absorbed and active after oral administration
N L G E H P V C D S (NLGEHPVCDS; SYNTHESIZED. SIMILAR TO FRAGMENT 7-16 OF SEQ. ID. NO. 1.) [AD-10] | 2700 | biologically active in producing neurite outgrowth | 1 | >100 | 
ADESH: name of the inventive peptides; in b30 the synthetic ADESH consisting of ten amino acids (AD-10) (NLGEHPVCDS) |  | equally active as the fragment of the native NGF |  |  | reaction with Anti-V-NGF (in words) (Anti-V-NGF): react poorly
N L G E H (NLGEH; SYNTHESIZED. CORRESPONDS TO FRAGMENT 7-11 OF SEQ. ID. NO. 1.) [AD-5, ID; NO: 4, first five amino acids] | 600 | biologically active in producing neurite outgrowth | 2 | >100 | 
H-NGF serum: NGF of human origin isolated from serum | 2700 |  |  |  | 
N L G E H P V C D S T D T W V (NLGEHPVCDSTDTWV; SYNTHESIZED. SIMILAR TO FRAGMENT 7-21 OF SEQ ID NO 1 ABOVE.) [AD-15, ID; NO: 2, first fifteen amino acids] | 1800 | biologically active in producing neurite outgrowth | 1 | >100 | 
H-NGF saliva: NGF of human origin isolated from saliva | 2700 |  |  |  | 
V-NGF (protein) EDHPVHNLGEHSVCDSVSAWVTKTTATDIKGNTVTVMENVNLDNKVYKEYFFETKCKNPNPEPSGCRGIDSSHWNSYCTETDTFIKALTMEGNQASWRFIRIETACVCVITKKKGN | 900 |  | 0.005 | 5 | reaction with Anti-AD-10 / Anti-ADESH (in words) (Anti-AD-10): react

— patent US7264808B2, “Synthetic peptide for neurological disorders” (priority 2000, dated 2007)
